The subject of series [1] is SH-SY5Y human neuroblastoma xenograft. It is filed as in vivo, Nu/nu female mice. As to the method: Methods: Immunodeficient athymic NMRI-Foxn1^nu/Foxn1^nu nude mice were subcutaneously injected with SH-SY5Y cells. This cell line was genetically modified to express luciferase, which would allow the in vivo study not only of tumor size, but also of metastasis formation. When tumors reached an average volume of 80 mm^3, mice were randomly distributed into different treatment groups. ABTL0812 was administered orally at 120 mg/kg daily. In parallel we used cisplatin, a drug included in the chemotherapy induction phase for the treatment of neuroblastoma. Cisplatin was administered at 2 mg/kg i.p. twice a week (Wang et al. 2010). Additionally, we studied the effect of combining ABTL0812 with cisplatin at the indicated doses.
C. Metastasis formation. In order to investigate the effect of ABTL0812 in metastasis formation we used a SH-SY5Y cell line transduced with a luciferase reporter vector. As described above, mice bearing xenograft tumors derived from this cell line were treated with ABTL0812, cisplatin or the combination of both drugs. After ten days of treatment animals were sacrificed and metastasis were assessed ex vivo by monitoring luciferase-expressing cells in lung and liver.

Series [2] concerns H1957 cells. The series can be described thus: Cell viability (MTT) of ABTL0812 in combination with paclitaxel, H1957. It is filed as cell-based, human. Conditions: Homo sapiens; H1957, 48 hours, 0.1% FBS, single agent. As to the method:
(§1) Methods: A549 cells were incubated with increasing concentrations of ABTL0812 (3-300 μM), paclitaxel (0.003-1 μM), or a combination of both using subIC50 fixed concentration of ABTL0812 and 0.003-1 μM paclitaxel for 72 hours in DMEM with 0.1% FBS. H157, H1957 and HTB-812 cells were incubated with increasing concentrations of paclitaxel (0.001-10 μM) alone and in combination with subIC50 fixed concentration of ABTL0812 for 48 hours in DMEM with 0.1% FBS. Cell viability was evaluated in all cases by MTT assay and IC50's were calculated for paclitaxel and the combination. The concentrations of the combinations for the different cell lines were:
(§2) Finally, the Combination Index (CI), as described in the previous section, was calculated for the values of paclitaxel IC50.

For series [3], the system named is HTB-812 cells. The series can be described thus: Cell viability (MTT) of ABTL0812 in combination with paclitaxel, HTB-812. Type of series: cell-based, human. Conditions: Homo sapiens; HTB-812, 48 hours, 0.1% FBS, single agent. As to the method: as §1, §2
Series [4] is classed as in vivo. As to the method: Methods: Forty-five female CD-1 mice were distributed by means of the body weight stratification method into nine experimental groups (A-I) (5 animals for group) that differed in the treatment or in the day on which the reference items (paclitaxel and carboplatin) were administered.
The table below summarizes the treatment groups. Please note that the same administration schedule and doses were administered as in the previous efficacy studies.
The safety assessment relied on observed mortality, local and systemic clinical signs, body weight and food consumption recorded throughout the whole study. In addition, clinical pathology determinations (biochemistry and hematology) were performed before sacrifice in all animals. At the end of the observation period (one day after the last administration), all surviving animals were sacrificed and subjected to a gross necropsy. Moreover, the safety assessment was also based on the weight of selected target organs collected at sacrifice.

The test system of series [5] is MDB-DA-231 (human triple negative breast cancer). Nature of the series: Cell viability (MTT) of ABTL0812 alone or with paclitaxel in breast cancer. Type of series: cell-based. Conditions: Homo sapiens; MDB-DA-231, 48h, 0.5% FBS, MTT, single agent. The procedure: Methods: MDB-DA-231 cells were seeded in 24-well plates together with increasing concentration of paclitaxel (1-100 nM) in the presence of 5, 10 and 20 μM of ABTL0812 (all doses below to an IC25) for 48h (0.5% FBS). Cell viability was studied by the MTT assay and several parameters were determined to evaluate a possible synergism. First the IC50 for each drug alone or the combination was calculated.

The subject of series [6] is H157 cells. The series can be described thus: Cell viability (MTT) of ABTL0812 in combination with paclitaxel, H157. Conditions: Homo sapiens, NCI-H157; H157, 48 hours, 0.1% FBS, single agent. Type of series: cell-based, human. As to the method: as §1, §2
Series [7] concerns A549 (human lung carcinoma) cell line. Nature of the series: Cell viability (MTT) of ABTL0812 in combination with docetaxel in lung cancer. Conditions: Homo sapiens, 72 h, A549, three days, FBS 0.5%, single agent. It is filed as cell-based. The procedure:
Methods: A549 cells were incubated with increasing concentrations of ABTL0812 (3-300 μM), docetaxel (0.01-100 μM), or a combination of both (subIC50, i.e., 20 μM fixed concentration of ABTL812 and 0.01-100 μM docetaxel) for three days (FBS 0.5%). […] In the denominator, (Dx)1 is for D1“alone” that inhibits a system x %, and (Dx)2 is for D2“alone” that inhibits a system x %.

Series [8] concerns A549 human lung adenocarcinoma xenograft. Type of series: in vivo. Conditions: ABTL0812 30 mg/kg/day oral 5 times a week; docetaxel 5 mg/kg i.p. once a week. The procedure:
Methods: Mice were injected with 5×10^6 A549 cells in each flank to induce tumor formation. […] ABTL0812 was administered by the oral route at 30 mg/kg/day, 5 times a week. Docetaxel 5 mg/kg was administered intra-peritoneally once a week (Coxon et al. 2012). Tumor volume and body weight were monitorized 3 times a week.

In series [9] the test system is MiaPaca2 (human pancreatic carcinoma). Nature of the series: Cell viability (MTT) of ABTL0812 alone or with gemcitabine in pancreatic cancer. Type of series: cell-based. Conditions: Homo sapiens, MIA PaCa-2; MiaPaca2, 72h, 0.5% FBS, MTT, single agent. As to the method: Methods: MiaPaca2 cells were seeded in 24-well plates together with gemcitabine (0.01-100 μM), ABTL812 (3-300 μM), or a combination of both (subIC50, i.e., 25 μM fixed concentration of ABTL0812 with 0.01-100 μM gemcitabine) and left in the incubator for 72h (0.5% FBS). Cell viability was studied by the MTT assay and several parameters were determined to evaluate a possible synergism. First the IC50 for each drug alone or the combination was calculated. Then, synergism (CI) was calculated as described above.

Series [10] has as its system MiaPaca2 human pancreatic cancer xenograft. Nature of the series: Human pancreatic xenograft (MiaPaca-2), gemcitabine and Nab-paclitaxel/gemcitabine. It is filed as in vivo, Athymic Nude-Foxn1nu female mice. Conditions: ABTL0812 120 mg/kg oral 5 times a week; gemcitabine 60 mg/kg, Nab-Paclitaxel 5 mg/kg i.p. 2 times a week (suboptimal chemotherapy dose). The procedure:
It is important to change the site of injection to avoid intestinal necrosis and keep Nab-Paclitaxel and gemcitabine injections as far as possible one from the other in mice abdomen. • Gemcitabine+ABTL0812 (n=10): treated orally with 120 mg/kg of ABTL0812 in 200 μl of distilled water+5% glycerol, 5 times a week and with 60 mg/kg of gemcitabine administered i.p in 100 μl of sterile water, 2 times a week. ABTL0812 was always administered before chemotherapy with the aim of reducing the stress derived from the i.p. injection, that is normally applied as the last administration. • Gemcitabine+Nab-Paclitaxel+ABTL0812 (n=8): treated orally with 120 mg/kg of ABTL0812 in 200 μl of distilled water+5% glycerol, 5 times a week, with 60 mg/kg of gemcitabine administered i.p. in 100 μl of sterile water, 2 times a week and with 5 mg/kg of Nab-Paclitaxel administered i.p. in 230 μl of 0.9% NaCl solution 2 times a week. As in the gemcitabine+Nab-Paclitaxel group, injections where administered in separated areas of the abdomen. […]
Treatment efficacy was assessed by measuring tumor volume three days a week. Additionally, total body weight was monitored three days a week to test the toxicity associated with the treatments in addition to visual examination of signs indicative of clinicopathological symptoms. […]
On the technique in general: In xenograft studies the graft and the host belong to different species.

The test system of series [11] is LA1-5S neuroblastoma cell line. Nature of the series: Cell viability (crystal violet) of ABTL0812 with retinoic acid, LA1-5S. Conditions: 24h.
Protocol: (§3) Methods: LA1-5S and SK-N-BE(2) cells were incubated with a subIC50 fixed concentration of ABTL0812 (30 μM), increasing concentrations of 10 μM, 20 μM and 30 μM of retinoic acid or a combination of both. […] Cells were treated for 24h in IMDM with 0.5% FBS. Cell viability was evaluated in all cases by crystal violet assay. Different doses were assessed in six replicates and the results shown are the average of two independent experiments. Statistical analyses were performed according to the T-Test principle with GraphPad Prism® 5.0 software (* p<0.05; ** p<0.01; *** p<0.001)..
Series [12] concerns SK-N-BE(2) human neuroblastoma cell line. The series can be described thus: Cell viability (crystal violet) of ABTL0812 with retinoic acid, SK-N-BE(2). Conditions: 24h.
Protocol: as §3

The source of these data is patent US11260042B2, “Pharmaceutical combination for the treatment of cancer” (ABILITY PHARMACEUTICALS S.L., priority 2017, dated 2022).

The structures appear in SMILES notation. Like-named read-outs stand apart in the source and are kept apart here.

Regarding `N.N.[Cl][Pt][Cl]` [Cisplatin, reference compound], in [1] (mouse, in vivo), the Hematocrit worked out at 37.3 ± 2.7%; the RBC was 6.8 ± 0.9 ×10^6/μL; the WBC is recorded as 3.0 ± 0.6 ×10^3/μL; the “hematological safety” value was “induced anemia and reduced white blood cell count”. Moreover, the “metastasis formation in lung and liver” value in [1] (ten days of treatment, luciferase-expressing cells ex vivo) is listed as “no significant effect in inhibiting metastasis formation”.
`CC(=O)O[C@H]1C(=O)[C@@]2(C)[C@H]([C@H](OC(=O)c3ccccc3)[C@]3(O)C[C@H](OC(=O)[C@H](O)[C@@H](NC(=O)c4ccccc4)c4ccccc4)C(C)=C1C3(C)C)[C@]1(OC(C)=O)CO[C@@H]1C[C@@H]2O` [Paclitaxel]: in series [2], the IC50 is 3.68 µM. Besides, the IC50 in series [3] was determined as 2.71 µM. In series [4] (mouse, in vivo), the “Biochemistry Creat” value was 9.74 µmol/L, the “Biochemistry Triglyc” value is recorded as 1.31 mmol/L, the “Biochemistry Urea” value came to 9.50 mmol/L and the “Body Weight Gain D 8-11” value is recorded as 0.442 g. In addition, in series [4] (mouse, in vivo), the “Hematology PLT” value is recorded as 1378 ×10^3/μL, the “Hematology RBC” value is given as 9.59 ×10^6/μL and the “Hematology WBC” value is listed as 6.28 ×10^3/μL. Also, the IC50 in series [5] was found to be 0.0087 µM. The IC50 in series [6] is 4.19 µM.
Consider `CC(=O)O[C@@]12CO[C@@H]1C[C@H](O)[C@@]1(C)C(=O)[C@H](O)C3=C(C)[C@@H](OC(=O)[C@H](O)[C@@H](NC(=O)OC(C)(C)C)c4ccccc4)C[C@@](O)([C@@H](OC(=O)c4ccccc4)[C@H]21)C3(C)C` [Docetaxel, reference compound], for which the IC50 in series [7] came out at 1.7 µM. Moreover, the tumor volume result in [8] is reported as “similarly reduced tumor volume”.
As for `N.N.O=C([O-])C1(C(=O)[O-])CCC1.[Pt+2]` [Carboplatin], the “Body Weight Gain D 1-4” value in series [4] (ABTL0812 120 mg/kg p.o. days 2-6, 9-13, paclitaxel 15, carboplatin 50 mg/kg i.p. D 2/9) is -0.626 g. For the same compound, in [4] (PTX/CP on D 2/9), the “Biochemistry Creat” value came to 8.83 µmol/L, the “Biochemistry Triglyc” value was 1.35 mmol/L, the “Biochemistry Urea” value stood at 9.50 mmol/L and the “Body Weight Gain D 8-11” value is -0.450 g. Besides, in series [4] (PTX/CP on D 2/9), the “Hematology PLT” value is reported as 790 ×10^3/μL, the “Hematology RBC” value is listed as 8.40 ×10^6/μL and the “Hematology WBC” value is listed as 7.09 ×10^3/μL.
Consider `Nc1ccn([C@@H]2O[C@H](CO)[C@@H](O)C2(F)F)c(=O)n1` [Gemcitabine, reference compound], for which the IC50 in series [9] was 10.2 µM. In addition, in series [10], the tumor volume result is reported as “do not show significant difference in tumor volume compared with vehicle group”.
As to `CC1=C(/C=C/C(C)=C/C=C/C(C)=C/C(=O)O)C(C)(C)CCC1` [retinoic acid], the “cytotoxicity” value in series [11] (LA1-5S, 30 μM ABTL0812, retinoic acid 10-30 μM) is on record as “even lower”; in series [12] (SK-N-BE(2), 30 μM ABTL0812, retinoic acid 10-30 μM) it was “even lower”. For the same compound, the cell viability in series [11] (LAI-5S cells, combination with low concentration of ABTL0812) stood at 82.8%; in [12] (SK-N-BE(2) cells, combination with low concentration of ABTL0812), 70.4%.

As a reminder, the IC50 is the point on the concentration scale where inhibition reaches its midpoint. In general, cell viability refers to a per cent measure of how many cells are alive, often set against a control.
